In ChEMBL document CHEMBL1201862, “PubChem BioAssay data set” (2004):
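96-well plates; 48 h exposure; 5 concentrations. Endpoints by linear interpolation between flanking doses. Not reached: highest tested concentration assigned. Abbreviation: GI50, concentration required for 50% inhibition of growth.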 Active and inactive are the calls of the source. No stated cut-off is given here; in the data, active = GI50 up to about 1.1 µM and inactive = higher.

Legend:
Experiment in all cases: NCI-60 cell line screen, 48 h
Hs-578T = tested on: Hs-578T
SW-620 = tested on: SW-620
786-0 = tested on: 786-0
MDA-MB-435 = tested on: MDA-MB-435
RPMI-8226 = tested on: RPMI-8226
NCI-H522 = tested on: NCI-H522
HOP-62 = tested on: HOP-62
SK-MEL-2 = tested on: SK-MEL-2
U-251 = tested on: U-251
SR = tested on: SR
SNB-75 = tested on: SNB-75
IGROV-1 = tested on: IGROV-1
NCI-H226 = tested on: NCI-H226
MDA-MB-231 = tested on: MDA-MB-231
SK-OV-3 = tested on: SK-OV-3
COLO 205 = tested on: COLO 205
UO-31 = tested on: UO-31
M14 = tested on: M14
UACC-257 = tested on: UACC-257
HCT-15 = tested on: HCT-15
OVCAR-4 = tested on: OVCAR-4
RXF 393 = tested on: RXF 393
HT-29 = tested on: HT-29
DU-145 = tested on: DU-145
SK-MEL-5 = tested on: SK-MEL-5
MDA-N = tested on: MDA-N
HOP-92 = tested on: HOP-92
NCI/ADR-RES = tested on: NCI/ADR-RES
T47D = tested on: T47D
LOX IMVI = tested on: LOX IMVI
NCI-H460 = tested on: NCI-H460
Malme-3M = tested on: Malme-3M
UACC-62 = tested on: UACC-62
SF-268 = tested on: SF-268
SF-539 = tested on: SF-539
NCI-H23 = tested on: NCI-H23
OVCAR-8 = tested on: OVCAR-8
K562 = tested on: K562
MCF7 = tested on: MCF7
CCRF-CEM = tested on: CCRF-CEM
OVCAR-5 = tested on: OVCAR-5
SK-MEL-28 = tested on: SK-MEL-28
ACHN = tested on: ACHN
MOLT-4 = tested on: MOLT-4
TK-10 = tested on: TK-10
PC-3 = tested on: PC-3
HCC 2998 = tested on: HCC 2998
BT-549 = tested on: BT-549
A549 = tested on: A549
SF-295 = tested on: SF-295
SN12C = tested on: SN12C
A498 = tested on: A498
KM12 = tested on: KM12
SNB-19 = tested on: SNB-19
HCT-116 = tested on: HCT-116
CAKI-1 = tested on: CAKI-1
HL-60 = tested on: HL-60
EKVX = tested on: EKVX
OVCAR-3 = tested on: OVCAR-3

Measured: GI50

COC(=O)C1(Cc2ccccc2)Cc2ccc3c(c2C1=O)CCC3 (centres undefined)
inactive: Hs-578T 3.95 µM | SW-620 > 60.4 µM | 786-0 33.7 µM | MDA-MB-435 24.9 µM | RPMI-8226 25.4 µM | NCI-H522 20.8 µM | HOP-62 > 74.6 µM | SK-MEL-2 18.1 µM | U-251 36.1 µM | SR 28.7 µM | SNB-75 22.6 µM | IGROV-1 > 72.9 µM | NCI-H226 > 55.6 µM | MDA-MB-231 33.4 µM | SK-OV-3 > 80.4 µM | COLO 205 27.8 µM | UO-31 18 µM | M14 25.1 µM | UACC-257 35.2 µM | OVCAR-4 > 29.9 µM | RXF 393 20.4 µM | HT-29 29 µM | DU-145 > 75.3 µM | SK-MEL-5 18.5 µM | MDA-N 26.2 µM | HOP-92 20.8 µM | NCI/ADR-RES 23.7 µM | T47D 11.5 µM | LOX IMVI 39.3 µM | NCI-H460 60.8 µM | Malme-3M 14.2 µM | UACC-62 > 36.7 µM | SF-268 > 66.5 µM | SF-539 > 48.9 µM | NCI-H23 32.2 µM | OVCAR-8 59.6 µM | K562 30.6 µM | MCF7 23.1 µM | CCRF-CEM 26.9 µM | OVCAR-5 > 63 µM | SK-MEL-28 > 70.6 µM | ACHN 51.4 µM | MOLT-4 20.6 µM | TK-10 > 47.5 µM | PC-3 26.1 µM | HCC 2998 38.1 µM | BT-549 2.24 µM | A549 46.3 µM | SF-295 > 46.2 µM | SN12C 44.4 µM | A498 35.4 µM | KM12 31.8 µM | SNB-19 55.2 µM | HCT-116 30.5 µM | CAKI-1 9.73 µM | HL-60 20.3 µM | EKVX 13.1 µM | OVCAR-3 > 49 µM
35 µM: HCT-15
